Common to all, as to type: cell-based
The subject of experiment [1] is AMPA-type glutamate receptors (Gria1, Gria2, Gria3, Gria4). As to the kind of experiment: Isolation and detection of target molecule from living tissue (brain slices) using the probe, LC-MS. As to conditions: DBA/2CrSlc mouse brain slices, 302 nm UV 1 minute, two independent tests, FIG. 2. As to the method:
(§1) A DBA/2CrSlc mouse was anesthetized by isoflurane inhalation and then decapitated, and the brain was quickly removed. The removed brain was immersed in artificial cerebrospinal fluid (ACSF) at 0° C. for 60 seconds while being continuously bubbled with a gas mixture (95% O2, 5% CO2). The olfactory bulb and cerebellum were removed with a scalpel, and the brain was fixed to the stage of a vibrating blade microtome (Leica, VT1200) using instant glue. Sliced sections (thin sections having a thickness of 0.3 mm) of the brain containing the striatum and hippocampus were prepared in ACSF at 0° C. continuously bubbled with the gas mixture. The sliced sections were placed in a dish containing artificial cerebrospinal fluid. An unmodified ligand or DMSO was added, and the dish was allowed to stand at room temperature for 5 minutes. Subsequently, compound (CPF-224) produced in Production Example 10 or compound (CPF-202) produced in Production Example 8 was added, and the dish was allowed to stand at room temperature for 30 minutes. The solution was removed, and the sliced sections were irradiated with UV light (in the cases of CPF-224 and CPF-202, 302 nm UV light for 1 minute; in the case of CPF242, 365 nm UV light for 15 minutes). The sliced sections were washed and collected with PBS, and the supernatant was removed by centrifugation (3000×g, 4° C., 5 minutes). The obtained pellets were analyzed by the same method as in Test Example 1. The analysis was performed in two independent tests, and the results can be expressed as a ratio relative to those in the group treated with the unmodified ligand.

For experiment [2], the system named is GABA receptor subunits (Gabra1, Gabra2, Gabra5, Gabrg2). Described as above. As to conditions: DBA/2CrSlc mouse brain slices, CPF-202 302 nm UV 1 minute, CPF-242 365 nm UV 15 minutes, FIGS. 3 and 4. As to the method: as §1
For experiment [3], the target named is T1, human dopamine receptor D2 (DRD2) (Homo sapiens, UniProt P14416).
T1 construct: expressed in transfected cells; host or cells: CHO-K1
As to the kind of experiment: Isolation and detection of target molecule from living cells using the probe (UV crosslinking, streptavidin enrichment, LC-MS). As to conditions: CHO-K1 cells stably expressing human DRD2; 302 nm UV 1 minute; LC-MS LFQ; two independent tests; FIG. 1. As to the method: CHO-K1 cells stably expressing human dopamine receptor D2 (DRD2) were cultured on a 10-cm plate until they became confluent.
The cells were washed with a medium, and the medium was replaced with a medium containing DMSO or an unmodified ligand, followed by a reaction for 30 minutes. Subsequently, the medium was discarded and replaced with a medium containing compound (CPP-127) synthesized in Production Example 12, and the cells were allowed to stand at 37° C. for 30 minutes. The medium was discarded, and the cells were washed with PBS. PBS (1 ml) was added to the cells on the plate, and then the cells were irradiated with 302 nm UV light for 1 minute using a UV crosslinker. The cells were collected with a cell scraper after UV irradiation, and the collected cell pellets were cryopreserved at −80° C.
The cryopreserved cells were suspended in 50 mM Tris Homogenate Buffer (pH 7.4, 2.5 mM EDTA, 5 mM MgCl2, 320 mM sucrose) and homogenized using a sonicator. […]
The obtained tryptic digest was desalted and purified, and protein analysis was performed by LC-MS. […] A full scan MS spectrum was acquired in the m/z range of 380 to 1600, and a product ion spectrum was measured in data dependent acquisition mode. The data obtained by LC-MS were analyzed by Proteome Discoverer 2.2 analysis software (PD 2.2, Thermo Fisher Scientific). […]

The results in this text go back to patent US20260118357A1, “TETRA-FUNCTIONAL CHEMICAL PROBE AND METHOD FOR IDENTIFYING TARGET MEMBRANE PROTEIN FROM LIVING CELL OR LIVING TISSUE BY USING SAID PROBE” (priority 2019, published 2026).

T1 sequence (P14416 whole entry): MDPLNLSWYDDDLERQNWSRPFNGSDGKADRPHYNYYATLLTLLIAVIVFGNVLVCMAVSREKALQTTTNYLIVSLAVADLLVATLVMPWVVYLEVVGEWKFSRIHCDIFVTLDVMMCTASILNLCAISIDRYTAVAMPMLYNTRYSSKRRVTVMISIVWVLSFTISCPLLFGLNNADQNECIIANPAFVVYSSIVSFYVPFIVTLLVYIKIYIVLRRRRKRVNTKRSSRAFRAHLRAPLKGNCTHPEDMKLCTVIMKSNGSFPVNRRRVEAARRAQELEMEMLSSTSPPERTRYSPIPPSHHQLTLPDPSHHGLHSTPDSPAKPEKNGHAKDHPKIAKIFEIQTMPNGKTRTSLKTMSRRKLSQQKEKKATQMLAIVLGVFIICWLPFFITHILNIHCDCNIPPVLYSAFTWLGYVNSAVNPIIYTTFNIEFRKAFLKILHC

As to `CC1(C)CC(=O)C(=C(CCOCCOCCOCCOCCNC(=O)CCCC[C@@H]2SC[C@@H]3NC(=O)N[C@@H]32)NCCCC(=O)Nc2ccc(-n3nnc(C(=O)NCc4ccn(-c5cc6c(cc5C(F)(F)F)[nH]c(=O)c(=O)n6CC(=O)O)c4)n3)cc2)C(=O)C1` [CPF-224], the “detection of AMPA-type glutamate receptors compared with the group treated with the unmodified ligand” value in experiment [1] was “specifically collected”.

Turning to `CC1(C)CC(=O)C(=C(CCOCCOCCOCCOCCNC(=O)CCCC[C@@H]2SC[C@@H]3NC(=O)N[C@@H]32)NCCCC(=O)Nc2ccc(-n3nnc(C(=O)NCCCN4C(=O)CN=C(c5ccccc5)c5cc(Cl)ccc54)n3)cc2)C(=O)C1` [CPF-202], in experiment [2], the “detection of GABA receptor subunits compared with the group treated with the unmodified ligand” value is reported as “specifically collected”.

`CC1(C)CC(=O)C(=C(CCOCCOCCOCCOCCNC(=O)CCCC[C@@H]2SC[C@@H]3NC(=O)N[C@@H]32)NCCCCCNC(=O)CCC2(CCC(=O)NCCCN3C(=O)CN=C(c4ccccc4)c4cc(Cl)ccc43)N=N2)C(=O)C1` [CPF-242]: in experiment [2], the “detection of GABA receptor subunits compared with the group treated with the unmodified ligand” value is “specifically collected”.

Consider `CC1(C)CC(=O)C(=C(CCOCCOCCOCCOCCNC(=O)CCCC[C@@H]2SC[C@@H]3NC(=O)N[C@@H]32)NCCCC(=O)Nc2ccc(-n3nnc(C(=O)NCCCCC(=O)NCCCN4CCc5ccc(OCCCN6CCN(c7cccc8sccc78)CC6)cc5C4=O)n3)cc2)C(=O)C1` [CPP-127], for which, in experiment [3], the “detection of dopamine receptor D2 compared with the group treated with the unmodified ligand” value was “specifically collected”.
